Assay results: patent US7465581B2, “ANKTM1, a cold-activated TRP-like channel expressed in nociceptive neurons” (The Scripps Research Institute, priority 2002, dated 2008)
Entries after “also recorded” stand apart in the source; their conditions may differ.

Key:
ANKTM1 = target: T1, ANKTM1 (Mus musculus, UniProt Q8BLA8); test: Intracellular calcium imaging (Fura-2) of ANKTM1-expressing CHO cells; format: cell-based, murine; conditions: for activation of ANKTM1-expressing cells by compound: rise in intracellular calcium, 340/380 ratio, FIG. 4B
T1 construct: pcDNA5FRT/TO containing full-length murine ANKTM1; expressed in transfected cells; host or cells: tetracycline-inducible CHO-K1/FRT cells (Flp-In)
T1 sequence (Q8BLA8 whole entry): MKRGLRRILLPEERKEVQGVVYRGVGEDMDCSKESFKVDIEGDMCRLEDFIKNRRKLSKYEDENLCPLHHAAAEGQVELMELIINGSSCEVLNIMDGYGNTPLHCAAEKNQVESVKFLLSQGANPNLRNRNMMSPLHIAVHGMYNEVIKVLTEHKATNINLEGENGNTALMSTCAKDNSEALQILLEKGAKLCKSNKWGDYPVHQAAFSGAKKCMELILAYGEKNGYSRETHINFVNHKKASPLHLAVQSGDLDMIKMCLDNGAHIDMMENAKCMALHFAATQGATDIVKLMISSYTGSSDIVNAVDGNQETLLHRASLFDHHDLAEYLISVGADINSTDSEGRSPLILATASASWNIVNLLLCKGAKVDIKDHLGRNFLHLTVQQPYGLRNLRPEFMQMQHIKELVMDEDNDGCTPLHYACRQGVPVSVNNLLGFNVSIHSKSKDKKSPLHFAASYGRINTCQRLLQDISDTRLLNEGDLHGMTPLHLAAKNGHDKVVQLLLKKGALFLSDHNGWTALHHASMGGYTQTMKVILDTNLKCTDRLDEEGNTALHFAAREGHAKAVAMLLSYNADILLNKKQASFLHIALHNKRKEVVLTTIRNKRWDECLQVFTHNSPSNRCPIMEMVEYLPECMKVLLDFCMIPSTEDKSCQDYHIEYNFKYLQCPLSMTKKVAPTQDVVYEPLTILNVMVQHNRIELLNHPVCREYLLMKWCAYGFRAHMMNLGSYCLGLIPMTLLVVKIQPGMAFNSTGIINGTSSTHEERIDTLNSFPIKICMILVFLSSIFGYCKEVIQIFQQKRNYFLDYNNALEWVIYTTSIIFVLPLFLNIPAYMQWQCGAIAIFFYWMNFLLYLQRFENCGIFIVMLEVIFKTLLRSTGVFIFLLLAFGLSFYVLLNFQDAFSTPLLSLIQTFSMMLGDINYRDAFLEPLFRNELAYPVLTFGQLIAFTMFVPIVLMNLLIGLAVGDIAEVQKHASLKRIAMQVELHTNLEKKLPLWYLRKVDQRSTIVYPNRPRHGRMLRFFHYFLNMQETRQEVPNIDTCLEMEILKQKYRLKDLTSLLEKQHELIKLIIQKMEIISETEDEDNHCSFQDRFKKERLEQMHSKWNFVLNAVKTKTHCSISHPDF
Experimental: Nevertheless, since ANKTM1 bears similarities to TRP-like channels expressed in sensory neurons, tests were conducted to determine activation of ANKTM1 by various sensory stimuli. To this end, a series of tests were conducted using full-length murine ANKTM1 stably transfected in Chinese Hamster Ovary (CHO) cells containing FRT sites (CHO-K1/FRT) under control of a tetracycline (Tet)-inducible promoter via Flp recombinase mediated recombination. To circumvent this problem, cell lines were generated in which ANKTM1 expression could be controlled. Tetracycline-inducible CHO-K1/FRT cells lines were generated by transfecting the CHO Flp-In host cell line with pcDNA6/TR according to manufacturer's instructions (Invitrogen, San Diego, Calif.) and selected in 5 μg/mL Blasticidin. Clones stably expressing the tetracycline repressor identified by blasticidin resistance were transiently transfected with a control plasmid containing the CAT gene and selected based on high levels of CAT expression after treatment with tetracycline. The gene expression vector; pcDNA5FRT/TO containing full-length murine ANKTM1 and the Flp recombinase expression plasmid pOG44 were co-transfected into the tetracycline-inducible CHO-K1/FRT cell line and selected via Hygromycin resistance (200 μg/ml). Induction of ANKTM1 was accomplished by treating CHO cells with 1-2 μg/mL tetracycline (Tet) 5-24 hours before experiments. Calcium imaging experiments were performed essentially as described (Peier et al., 2002a, supra). Briefly, cells were plated on glass coverslips 24-48 hours prior to imaging experiments. Cells were washed in HEPES buffeted saline solution (2 mM Ca^2+), loaded with Fura-2 acetoxymethyl ester ([…]), 1.5 mM pluronic acid (Molecular Probes, Eugene, Oreg.) and incubated for 1 hour at room temperature in the dark. Coverslips were placed in laminar flow chamber (Warner Instrument Corp., Hamden, Conn.) and perfused with HEPES buffered saline (2 mM Ca^2+) flowing through small-diameter tubing at the inlet of the chamber. Perfusion rate was approximately 2 ml/min and was stopped and started via a solenoid switch (Warner Instrument Corp., Hamden, Conn. Perfusate temperature was controlled by a Peltier device and monitored via miniature thermocouple at the inlet of the chamber. Heated (up to 52° C.), chilled (down to 9° C., the limit of our system), and room temperature buffer was delivered through the same application tubing at the inlet of the chamber. Alternatively, in experiments where the compounds menthol (Sigma, St. Louis, Mo.]), capsaicin (Fluka, Buchs, Switzerland) and Icilin (Tocris Woodson,) were applied, cells were plated on 24-well tissue culture plates and loaded with Fura-2. Compounds were delivered with a 3 cc syringe during a period of ten seconds. Images of Fura-2 loaded cells with the excitation wavelength alternating between 340 nm and 380 nm were captured with a cooled […] camera. The ratio of fluorescence intensity of the two wavelengths of groups of 30-50 cells in each experiment was analyzed using MetaFluor (Universal Imaging Corp). Experiments were performed in triplicate. Unless otherwise indicated, graphs represent averaged responses of 20-40 cells from representative experiments. For direct comparison of results from different experiments, values were normalized to baseline of the ratio 340/380. For ANKTM1 and TRPM8 threshold experiments, the threshold temperature of activation of 60-100 cells each from three replicate experiments was analyzed. Threshold of activation was defined as 20% above baseline. Hanks Balanced Salt Solution (HBSS) and HEPES buffers were obtained from GibcoBRL.

TRPM8 [1] = target: T2, TRPM8 (Mus musculus, UniProt Q8R4D5); test: Intracellular calcium imaging (Fura-2) of TRPM8-expressing CHO cells; format: cell-based, murine
T2 construct: expressed in transfected cells; host or cells: CHO-K1/FRT cells
T2 sequence (Q8R4D5 whole entry): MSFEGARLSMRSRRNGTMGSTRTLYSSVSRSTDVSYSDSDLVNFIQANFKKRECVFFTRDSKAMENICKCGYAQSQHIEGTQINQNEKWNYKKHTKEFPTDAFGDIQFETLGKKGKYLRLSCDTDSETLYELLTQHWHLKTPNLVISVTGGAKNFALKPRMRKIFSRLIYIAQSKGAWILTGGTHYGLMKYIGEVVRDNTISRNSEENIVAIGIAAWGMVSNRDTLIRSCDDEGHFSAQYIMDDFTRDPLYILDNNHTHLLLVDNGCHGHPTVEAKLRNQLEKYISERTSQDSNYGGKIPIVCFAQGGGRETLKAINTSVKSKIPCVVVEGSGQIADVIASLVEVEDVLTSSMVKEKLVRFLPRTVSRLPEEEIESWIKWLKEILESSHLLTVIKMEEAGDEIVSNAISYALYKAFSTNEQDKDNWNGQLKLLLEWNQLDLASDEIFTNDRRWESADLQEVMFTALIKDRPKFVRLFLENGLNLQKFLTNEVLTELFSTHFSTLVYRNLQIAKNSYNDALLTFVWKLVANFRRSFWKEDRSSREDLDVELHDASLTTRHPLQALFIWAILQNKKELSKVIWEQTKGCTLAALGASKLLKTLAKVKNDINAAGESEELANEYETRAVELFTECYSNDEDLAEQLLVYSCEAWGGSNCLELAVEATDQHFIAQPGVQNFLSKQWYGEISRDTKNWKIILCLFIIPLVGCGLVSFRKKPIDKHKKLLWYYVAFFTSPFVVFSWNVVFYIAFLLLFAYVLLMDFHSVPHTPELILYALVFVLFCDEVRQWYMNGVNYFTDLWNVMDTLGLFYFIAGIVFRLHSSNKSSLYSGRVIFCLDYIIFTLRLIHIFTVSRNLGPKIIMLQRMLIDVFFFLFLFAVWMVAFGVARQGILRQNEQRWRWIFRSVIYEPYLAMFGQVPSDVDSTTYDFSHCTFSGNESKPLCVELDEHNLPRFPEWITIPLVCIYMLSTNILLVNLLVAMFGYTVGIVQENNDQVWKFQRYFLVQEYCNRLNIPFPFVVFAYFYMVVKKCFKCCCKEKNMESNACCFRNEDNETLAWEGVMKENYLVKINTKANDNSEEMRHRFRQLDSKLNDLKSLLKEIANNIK
Experimental: CHO-K1/FRT cells were stably transfected with full-length murine ANKTM1 in the pcDNA5/FRT vector using Lipofectamine (Invitrogen) according to the manufacturer's protocol. Transfected cells were selected in growth medium containing Hygromycin (200 μg/mL). Northern blot analysis identified stable clones expressing ANKTM1 mRNA. The generation of stable murine TRPM8-expressing CHO-K1/FRT cells has been previously described (Peier et al, 2002). ANKTM1-expressing stable CHO-K1/FRT lines appeared unhealthy (membrane blebbing, cytoplasmic granulations) in culture, and after several passages, a loss of ANTKM1 expression was observed. Previous investigators have also claimed difficulty generating stable cell lines expressing human ANKTM1.
Calcium imaging experiments were performed essentially as described (Peier et al., 2002a, supra). Briefly, cells were plated on glass coverslips 24-48 hours prior to imaging experiments. […]
Images of Fura-2 loaded cells with the excitation wavelength alternating between 340 nm and 380 nm were captured with a cooled […] camera. The ratio of fluorescence intensity of the two wavelengths of groups of 30-50 cells in each experiment was analyzed using MetaFluor (Universal Imaging Corp). […] For ANKTM1 and TRPM8 threshold experiments, the threshold temperature of activation of 60-100 cells each from three replicate experiments was analyzed. […]

TRPV1 [2] = target: T3, TRPV1 (Rattus norvegicus, UniProt O35433); test: Intracellular calcium imaging (Fura-2) of TRPV1-expressing CHO cells; format: cell-based; conditions: rise in intracellular calcium, 340/380 ratio, FIG. 4B
T3 construct: expressed in transfected cells; host or cells: CHO cells
T3 sequence (O35433 whole entry): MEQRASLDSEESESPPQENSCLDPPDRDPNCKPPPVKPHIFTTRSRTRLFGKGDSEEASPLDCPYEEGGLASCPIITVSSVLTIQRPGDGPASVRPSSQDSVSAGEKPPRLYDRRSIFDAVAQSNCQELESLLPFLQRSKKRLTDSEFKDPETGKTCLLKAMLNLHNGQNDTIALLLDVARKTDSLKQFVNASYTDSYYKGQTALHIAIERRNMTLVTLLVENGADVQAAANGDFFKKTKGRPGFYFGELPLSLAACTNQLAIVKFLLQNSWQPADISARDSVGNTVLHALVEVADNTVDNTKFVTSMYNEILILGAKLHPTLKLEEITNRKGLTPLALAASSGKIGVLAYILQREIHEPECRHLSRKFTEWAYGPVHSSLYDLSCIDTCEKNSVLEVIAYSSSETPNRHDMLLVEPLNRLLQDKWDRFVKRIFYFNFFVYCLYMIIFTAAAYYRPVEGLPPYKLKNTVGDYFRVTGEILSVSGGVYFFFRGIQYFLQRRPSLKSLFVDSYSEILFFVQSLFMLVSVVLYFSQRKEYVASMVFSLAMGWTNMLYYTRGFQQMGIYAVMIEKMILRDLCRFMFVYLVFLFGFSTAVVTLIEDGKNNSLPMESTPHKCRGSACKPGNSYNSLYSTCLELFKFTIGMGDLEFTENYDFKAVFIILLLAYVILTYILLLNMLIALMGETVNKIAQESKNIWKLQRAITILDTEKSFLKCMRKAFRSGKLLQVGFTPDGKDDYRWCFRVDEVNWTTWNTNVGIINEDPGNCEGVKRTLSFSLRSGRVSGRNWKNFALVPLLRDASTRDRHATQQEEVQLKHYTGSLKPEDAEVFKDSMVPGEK
Experimental: Calcium imaging experiments were performed essentially as described (Peier et al., 2002a, supra). Briefly, cells were plated on glass coverslips 24-48 hours prior to imaging experiments. Cells were washed in HEPES buffeted saline solution (2 mM Ca^2+), loaded with Fura-2 acetoxymethyl ester ([…]), 1.5 mM pluronic acid (Molecular Probes, Eugene, Oreg.) and incubated for 1 hour at room temperature in the dark. Coverslips were placed in laminar flow chamber (Warner Instrument Corp., Hamden, Conn.) and perfused with HEPES buffered saline (2 mM Ca^2+) flowing through small-diameter tubing at the inlet of the chamber. Perfusion rate was approximately 2 ml/min and was stopped and started via a solenoid switch (Warner Instrument Corp., Hamden, Conn. Perfusate temperature was controlled by a Peltier device and monitored via miniature thermocouple at the inlet of the chamber. Heated (up to 52° C.), chilled (down to 9° C., the limit of our system), and room temperature buffer was delivered through the same application tubing at the inlet of the chamber. Alternatively, in experiments where the compounds menthol (Sigma, St. Louis, Mo.]), capsaicin (Fluka, Buchs, Switzerland) and Icilin (Tocris Woodson,) were applied, cells were plated on 24-well tissue culture plates and loaded with Fura-2. Compounds were delivered with a 3 cc syringe during a period of ten seconds. […]

TRPM8 [3] = target: T2, TRPM8; conditions: McKemy et al., 2002; cited from earlier work
TRPV1 [4] = target: T3, TRPV1; conditions: general statement; cited from earlier work

With CC1CCC(C(C)C)C(O)C1 (stereo not drawn) [Menthol, menthol] the “activation of ANKTM1-expressing cells by compound” value (ANKTM1) was “failed to activate”.

In the case of N.N.N.N.N.N.N.N.N.N.N.N.N.N.[Cl-].[Cl-].[Cl-].[Cl-].[Cl-].[Cl-].[O-2].[O-2].[Ru+3].[Ru+3].[Ru+4] [ruthenium red], the “block of cold responses by ANKTM1” value (ANKTM1; 5 μM ruthenium red, pre-incubation or present during cooling, ANKTM1-expressing CHO cells, not entirely recovered after ten minute washout) was “eliminates cold-evoked responses; also recorded: completely blocked” and the “ANKTM1-containing cells with complete block of the cold response” value (ANKTM1; 1 μm ruthenium red, multiple experiments) was 90%.

In the case of O=C1NC(c2cccc([N+](=O)[O-])c2)=CCN1c1ccccc1O [Icilin], the delay of response (ANKTM1; ANKTM1 cells) was 15 to 60 s, the “concentration required for ANKTM1 activation compared to TRPM8” value (ANKTM1; comparison with TRPM8-expressing cells) was “Higher concentrations” and the “activation of ANKTM1-expressing cells by compound” value (ANKTM1) was “activated”. For the same compound, the delay of response (TRPM8 [1]; TRPM8 cells) was 15 s, the “activation of TRPV1-expressing cells by compound” value (TRPV1 [2]) was “did not activate” and the “activator of TRPM8” value (TRPM8 [3]) was “potent activator”.

In the case of COc1cc(CNC(=O)CCCC/C=C/C(C)C)ccc1O [capsaicin], the “activation of ANKTM1-expressing cells by compound” value (ANKTM1) is listed as “did not activate”, the “activation of TRPM8-expressing cells by compound” value (TRPM8 [1]; rise in intracellular calcium, 340/380 ratio, FIG. 4B) is listed as “did not activate” and the “activator of TRPV1” value (TRPV1 [4]) is listed as “potent activator”.
